Patent US6867305B2, “Synthesis of epothilones, intermediates thereto and analogues thereof” (Sloan-Kettering Institute for Cancer Research, priority 1996, dated 2005)
Counter-ions that a name gives are not always drawn.

Experiments:
[1] = tested on: A549 lung carcinoma xenograft; experiment: Human tumor xenograft in nude mice; type: in vivo; conditions: A549, i.v. infusion
Method: (§1) Depending on the tumor type, treatment started on day 10 to day 21 when subcutaneous tumor size reached 35-200 mm^3, except otherwise indicated. Tumor size and body-weight were recorded every other day (Q2D) and, for humane reasons, the animals were sacrificed when tumor size reached ≧10% of body-weight. Each group, including untreated control, consisted of 3-5 animals unless otherwise indicated.
(§2) Athymic nude mice bearing the nu/nu gene were used for all human tumor xenografts. Outbred, Swiss-background mice were obtained from Charles River Laboratories. Male mice 8 weeks or older weighing 22 g and up were used for most experiments. The drug was administered via the tail vein for 6 hr.-i.v. infusion. Each individual mouse was confined in a perforated Falcon polypropylene tube restrainer for drug administration. Tumor volume was assessed by measuring length×width×height (or width) using a caliper. The programmable Harvard PHD2000 syringe pump (Harvard Apparatus) with multi-track was used for i.v. infusion. […] All animal studies were conducted in accordance with the guidelines of the National Institutes of Health “Guide for the Care and Use of Animals” and the protocol approved by the Memorial Sloan-Kettering Cancer Center's Institutional Animal Care and Use Committee. In keeping with the policy of this committee for the humane treatment of tumor-bearing animals, mice were euthanized when tumors reached ≧10% of their total body weight.
(§3) Human tumor cells (5×10^6) or tumor tissue (30-50 mg) were implanted s.c. flank in nu/nu mice (Charles River Laboratories, Wilmington, Mass.). When tumor grew to a specified size, treatment was started by every-other day×5 with 6 hr i.v.-infusion, unless otherwise indicated. Tumor volume was measured with calipers in three dimensions (length×width×height or width). Body-weight changes and lethality were monitored every other day.

[2] = tested on: PC-3 prostate adenocarcinoma xenograft; experiment: Human tumor xenograft in nude mice; type: in vivo; conditions: PC-3, i.v. infusion
Method: as §1, §2, §3

[3] = tested on: CCRF-CEM/VBL; experiment: Relative potency in vitro, very highly resistant MDR cells; type: cell-based, human; conditions: Homo sapiens, CCRF-CEM, read-out: CCRF-CEM/VBL IC50 in μM
Method: (§4) The cells were cultured at an initial density of 2-5×10^4 cells per ml. They were maintained in a 5% CO2-humidified atmosphere at 37° C. in RPMI mediun 1640 (GIBCO/BRL) containing penicillin (100 units/ml), streptomycin (100 μg/ml) (GIBCO/BRL), and 5% heat-inactivated fetal bovine serum. For solid tumor cells growing in a monolayer (such as MCF-7/Adr), cytotoxicitiy of the drug was determined in 96-well microtiter plates by using the sulforhodamine B method as described by Skehan et al (23) for measuring the cellular protein content. For cells that were grown in suspension (such as CCRF-CEM and its sublines), cytotoxicitiy was measured by using the 2,-3-bis(2-methoxy-4-nitro-5-sulfophenyl)-5carboxanilide)-2H terazodium hydroxide (XTT)-microculture tetrazonium method (24) in duplicate in 96-well microtiter plates. For both methods, the absorbance of each well was measured with a microplate reader (EL-340, Bio-Tek, Burlington, Vt.). Each run entailed six or seven concentrations of the tested drugs. Dose-effect relationship data were analyzed with the median-effect plot (25) by using a previously described computer program (26).

[4] = tested on: MCF-7/Adr; experiment: Tumor cell growth inhibition in vitro; type: cell-based, human; conditions: Homo sapiens, NCI/ADR-RES, MCF-7/Adr
Method: as §4, with “They were maintained in a 5% CO2-humidified atmosphere at 37° C. in RPMI mediun 1640 (GIBCO/BRL) containing penicillin (100 units/ml), streptomycin (100 μg/ml) (GIBCO/BRL), and 5% heat-inactivated fetal bovine serum.” left out

[5] = tested on: MCF-7/Adr mammary xenograft; experiment: Human tumor xenograft in nude mice; type: in vivo; conditions: i.v. infusion
[6] = tested on: MX-1 mammary carcinoma xenograft; conditions: MX-1, i.p., ref 19 (Table 4)
[7] = tested on: K562 chronic myelocytic leukemia xenograft; experiment: Human tumor xenograft in nude mice; type: in vivo
Method: FIG. 34 depicts tumor size in nude mice bearing human leukemia […] tumor following 6 mg/kg C-15-Aza-EpoB, Q2D×6 and 30 mg/kg dEpoF, Q2ED×6 (i.v. infusion […].). K562 tumor cells (1×10^7 in 0.2 mL) were inoculated to nude mice on day 0. Mice were treated with 6 mg/kg aza-EpoB, 6 h-i.v. infusion on days 20, 22, 24, 26, 28 and 30 (Δ, n=3). The same group of mice were then treated with 30 mg/kg dEpoF, 6 h-i.v. infusion on days 42, 44, 46, 48, 52, and 54 (Δ, n=3). […] The control mice (∘, n=3) received vehicle only.
K562 tumor cells (1×10^7, in 0.2 ml/mouse) were implanted s.c. on day 0. […] The control mice (∘, n=4) received vehicle, Cremophor-ethanol (1:1), only. The vertical bars indicate mean tumor size in mm^3±S.E.
as §1, §2, §3

[8] = tested on: UL-3-B/Taxol; experiment: cells; conditions: Homo sapiens, UL-3-B/Taxol
[9] = tested on: UL-3-C ovarian adenocarcinoma; experiment: Tumor cell growth inhibition in vitro; type: cell-based, human; conditions: Homo sapiens
Method: (§5) The fresh medium containing each drug was replenished every 7-14 days. […] In each case ,the drug-exposed cells were resuspended in fresh media for a minimum of 4 days before the experiments for the cell-growth inhibition was carried out.
as §4

[10] = tested on: MCF-7 human mammary adenocarcinoma; experiment: Tumor cell growth inhibition in vitro; type: cell-based; conditions: Homo sapiens, MCF7, MCF-7; read-out: IC50
Method: as §4, with “They were maintained in a 5% CO2-humidified atmosphere at 37° C. in RPMI mediun 1640 (GIBCO/BRL) containing penicillin (100 units/ml), streptomycin (100 μg/ml) (GIBCO/BRL), and 5% heat-inactivated fetal bovine serum.” left out

[11] = tested on: CCRF-CEM/VBL1000; experiment: Cell growth inhibition, resistant subline; type: cell-based; conditions: Homo sapiens
Method: as §5, §4

CC[C@]1(O)C[C@@H]2CN(CCc3c([nH]c4ccccc34)[C@@](C(=O)OC)(c3cc4c(cc3OC)N(C)[C@H]3[C@@](O)(C(=O)OC)[C@H](OC(C)=O)[C@]5(CC)C=CCN6CC[C@]43[C@@H]65)C2)C1 [Vinblastine, vinblastine sulfate, reference compound]
Therapeutic Effect Rank Order [1]: Taxol, dEpoB, VBL>VP-16
Therapeutic Effect Rank Order [2]: Taxol, VBL>dEpoB>>VP-16
IC50 [3]: 2.02 µM
IC50 [4]: 25 nM
Therapeutic Effect Rank Order [5]: dEpoB>>VP-16, Taxol>VBL, Adriamycin
Therapeutic Effect Rank Order [6]: dEpoB>Camptothecin>Taxol>VBL, EpoB
Therapeutic Effect Rank Order ([7]; K562, i.v. infusion, FIG. 3 & 4): dEpoB>>>VBL> Taxol> Adriamycin
therapeutic effect ([7]; K562, dEpoB 30 mg/kg, Taxol 20 mg/kg 6 hr i.v. infusion, Adriamycin 3 mg/kg, vinblastine 2.5 mg/kg i.v., every other day from day 20 (FIG. 36)): only partial curative or remissive effects
IC50 [8]: 3.1 nM
IC50 [9]: 0.37 nM
IC50 [10]: 9.4 nM
IC50 [11]: 974 nM
